# According to article PMC8691691 (ACS Chemical Neuroscience, 2021):
# Numbering of substitutions follows the chain as printed. Where two headings read alike, the source gives them in different places.
# How the values were obtained:
# GlyT2 = molecular target: T1, GlyT2 (Rattus norvegicus, UniProt P58295); test: [3H]glycine transport by recombinant GlyT2 expressed in COS7 cells; type: cell-based; details: for Vmax of glycine transport: n = 3; for reversibility of inhibition upon cell washing: washed, transport at 10 μM glycine; for decay of transport inhibition after 1–4 washes: 1 μM inhibitor 10 min, washes with HBS containing NaCl or choline chloride
# T1 construct: expressed in transfected cells; host or cells: COS7
# T1 sequence (P58295 1-799): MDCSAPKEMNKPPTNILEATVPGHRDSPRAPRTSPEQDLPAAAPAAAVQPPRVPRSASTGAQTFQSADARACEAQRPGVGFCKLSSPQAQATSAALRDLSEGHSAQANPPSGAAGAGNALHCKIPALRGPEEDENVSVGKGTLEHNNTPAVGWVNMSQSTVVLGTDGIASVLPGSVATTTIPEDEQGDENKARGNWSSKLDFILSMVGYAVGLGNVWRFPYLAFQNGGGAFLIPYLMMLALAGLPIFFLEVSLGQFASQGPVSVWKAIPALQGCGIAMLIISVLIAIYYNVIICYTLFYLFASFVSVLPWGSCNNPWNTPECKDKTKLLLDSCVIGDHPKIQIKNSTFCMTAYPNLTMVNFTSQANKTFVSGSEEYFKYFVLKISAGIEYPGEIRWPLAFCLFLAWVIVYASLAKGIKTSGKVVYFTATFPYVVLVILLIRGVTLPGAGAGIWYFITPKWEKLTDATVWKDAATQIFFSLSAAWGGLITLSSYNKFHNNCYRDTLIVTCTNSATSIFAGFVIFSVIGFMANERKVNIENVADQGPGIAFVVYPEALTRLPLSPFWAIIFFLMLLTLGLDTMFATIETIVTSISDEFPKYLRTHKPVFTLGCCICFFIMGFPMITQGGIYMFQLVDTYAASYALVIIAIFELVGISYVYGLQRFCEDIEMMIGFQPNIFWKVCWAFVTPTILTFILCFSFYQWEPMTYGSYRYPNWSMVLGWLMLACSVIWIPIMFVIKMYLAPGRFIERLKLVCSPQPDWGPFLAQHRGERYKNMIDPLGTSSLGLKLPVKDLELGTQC
# Protocol: Substitution mutants were generated with the QuikChange II Site-Directed Mutagenesis kit (Agilent Technologies, Santa Clara, CA, USA), using rGlyT2 or rGlyT1 subcloned in pCDNA3.[47] The complete coding region of all of the constructs was sequenced to verify that only the desired mutation had been introduced. […] COS7 cells were grown and transfected using Turbofect Transfection Reagent (Thermo Fisher Scientific, Waltham, MA, USA), following the manufacturer’s protocol (2 μL reagent/μg of DNA). Cells were incubated for 48 h at 37 °C until used.
# At the end of the desired time (usually 10 min), reactions were washed and terminated by aspiration. […] A nonlinear curve fitting method was used to obtain IC50 values using Graphpad Prism software, version 6.0, Graphpad, San Diego, CA, USA.
# GlyT2 D635E mutant = molecular target: T2, GlyT2 D635E mutant (Rattus norvegicus, UniProt P58295, D635E); test: [3H]glycine transport by GlyT2 mutant in COS7 cells; type: cell-based; details: read-out: IC50 (Table S1)
# T2 construct: expressed in transfected cells; host or cells: COS7
# T2 sequence (P58295 1-799 D635E): T1 sequence (P58295 1-799) with D635E
# GlyT1 = details: neuronal cultures and brain preparations; cited from earlier work
# allodynia = details: nerve ligation injury, streptozotocin-induced diabetic pain, complete Freund's adjuvant-induced inflammatory pain; cited from earlier work
# [1] = 1 nM inhibitor, glycine 0.5–500 μM
# [2] = 10 nM inhibitor, glycine 0.5–500 μM
# [3] = 50 nM inhibitor, glycine 0.5–500 μM
# [4] = 100 nM inhibitor, glycine 0.5–500 μM
# [5] = IC50, inhibition of glycine transport, COS7 cells, 10 μM glycine
"IC50 (GlyT2; 25 mM NaCl, choline chloride substitution, read-out: IC50, inhibition of [3H]-glycine transport, low sodium) [µM]","IC50 (GlyT2; 150 mM NaCl, read-out: IC50, inhibition of [3H]-glycine transport, regular sodium) [µM]",selectivity for GlyT2 over GlyT1 (GlyT2; COS7 cells),difference of inhibitor EC50 at every glycine concentration from its value at 10 μM glycine (GlyT2; glycine 0.5–500 μM),IC50 (GlyT2 D635E mutant) [µM],SMILES,Vmax of glycine transport (GlyT2; [1]) [nmol Gly/mg prot/6 min],Vmax of glycine transport (GlyT2; [2]) [nmol Gly/mg prot/6 min],reversibility of inhibition upon cell washing (GlyT2; 50 nM inhibitor),Vmax of glycine transport (GlyT2; [3]) [nmol Gly/mg prot/6 min],Vmax of glycine transport (GlyT2; [4]) [nmol Gly/mg prot/6 min],decay of transport inhibition after 1–4 washes (GlyT2),IC50 (GlyT2; [5]) [µM],inhibition type (Eadie–Hofstee plots) (GlyT2; glycine 0.5–500 μM),concentrations at which GlyT1 is inhibited (GlyT1) [µM],"IC50 (GlyT2; IC50 (Table S1), wtGlyT2, 10 μM glycine as in Figs. 4 and 5) [µM]","IC50 (GlyT2; IC50, inhibition of [3H]-glycine transport, low sodium, 25 mM NaCl, choline chloride substitution) [µM]","IC50 (GlyT2; IC50, inhibition of [3H]-glycine transport, regular sodium, 150 mM NaCl) [µM]","selectivity for GlyT2 (in words) (GlyT2; compared with ALX1393, Figure 2B)",effect on allodynia (allodynia)
0.122 ± 0.0209,0.0218 ± 0.0041,about 2 orders of magnitude,no more than 30%,0.03 ± 0.004,N[C@@H](COC(c1cccc(F)c1)c1ccccc1OCc1ccccc1)C(=O)O (stereo partly drawn) [ALX1393],22.3,18.8,eliminated by cell washing,13.2,30.4,presence of sodium in the washing buffer reduced the washing power,0.031 ± 0.0027,noncompetitive behavior,0.5 to 1,–,–,–,–,–
–,–,–,–,–,"COc1cc(C(=O)NCC2(N(C)C)CCCC2)cc(OC)c1OCc1ccccc1 [ORG25543, N-[[1-(dimethylamino)cyclopentyl]methyl]-3,5-dimethoxy-4-(phenylmethoxy)benzamide]",24.6,23.8,irreversible inhibition,18.6,11.5,no inhibition decay was observed,0.0177 ± 0.0046,mainly noncompetitive behavior,–,0.018 ± 0.005,0.0512 ± 0.0123,0.0238 ± 0.0071,higher selectivity for GlyT2,reduces allodynia
